# Test results from patent US20040044008A1, “Use of therapeutic benzamide derivatives” (priority 2000, published 2004).
row,melting point [°C],SMILES
1,124 to 128,COc1ccc(-c2ccccc2C(=O)Nc2ccc(N3CCN(Cc4cccc(C#N)c4)CC3)cc2)cc1
2,140 to 144,Cc1ccc(-c2ccccc2C(=O)Nc2ccc(N3CCN(Cc4cccc(C#N)c4)CC3)cc2)cc1C
3,72 to 76,Cc1ccc(-c2ccccc2C(=O)Nc2ccc(N3CCN(Cc4cccc(C#N)c4)CC3)cc2)c(C)c1
4,169 to 171,"N#Cc1cccc(CN2CCN(c3ccc(NC(=O)c4ccccc4-c4ccccc4)cc3)CC2)c1 (hydrate or solvate) [Example 11, Biphenyl-2-carboxylic acid [4-[4-(3-cyano-benzyl)-piperazin-1-yl]-phenyl]-amide]"
5,133 to 134,"N#Cc1cccc(CN2CCN(c3ccc(NC(=O)c4ccccc4Oc4ccccc4)cc3)CC2)c1 (hydrate or solvate) [Example 14, N-[4-[4-(3-Cyano-benzyl)-piperazin-1-yl]-phenyl]-2-phenoxy-benzamide]"
6,189 to 190.5,"O=C(Nc1ccc(N2CCN(Cc3cccc(F)c3)CC2)cc1)c1ccccc1-c1ccc(C(F)(F)F)cc1 (hydrate or solvate) [Example 53, 4′-Trifluoromethyl-biphenyl-2-carboxylic acid [4-[4-(3-fluoro-benzyl)-piperazin-1-yl]-phenyl]-amide]"
7,159 to 161,"COc1ccc(C(=O)Nc2ccc(N3CCN(Cc4cccc(C#N)c4)CC3)cc2)c(-c2ccccc2)c1 [Example 12, 5-Methoxy-biphenyl-2-carboxylic acid [4-[4-(3-cyano-benzyl)-piperazin-1-yl]-phenyl]-amide]"
8,133 to 135,"CC(C)c1ccc(-c2ccccc2C(=O)Nc2ccc(N3CCN(Cc4cccc(C#N)c4)CC3)cc2)cc1 [Example 16, 4′-Isopropyl-biphenyl-2-carboxylic acid [4-[4-(3-cyano-benzyl)-piperazin-1-yl]-phenyl]-amide]"
9,118 to 122,"CCc1ccc(-c2ccccc2C(=O)Nc2ccc(N3CCN(Cc4cccc(C#N)c4)CC3)cc2)cc1 [Example 20, 4′-Ethyl-biphenyl-2-carboxylic acid [4-[4-(3-cyano-benzyl)-piperazin-1-yl]-phenyl]-amide]"
10,117 to 121,"N#Cc1cccc(CN2CCN(c3ccc(NC(=O)c4ccccc4-c4cccc(C(F)(F)F)c4)cc3)CC2)c1 [Example 22, 3′-Trifluoromethyl-biphenyl-2-carboxylic acid [4-[4-(3-cyano-benzyl)-piperazin-1-yl]-phenyl]-amide]"
11,200 to 202,"N#Cc1cccc(CN2CCN(c3ccc(NC(=O)c4ccccc4-c4ccc(F)cc4)cc3)CC2)c1 [Example 23, 4′-Fluoro-biphenyl-2-carboxylic acid [4-[4-(3-cyano-benzyl)-piperazin-1-yl]-phenyl]-amide]"
12,116 to 120,"COc1ccc(-c2ccccc2C(=O)Nc2ccc(N3CCN(Cc4cccc(C#N)c4)CC3)cc2)cc1OC [Example 26, 3′,4′-Dimethoxy-biphenyl-2-carboxylic acid [4-[4-(3-cyano-benzyl)-piperazin-1-yl]-phenyl]-amide]"
13,118 to 120,"COc1cccc(C(=O)Nc2ccc(N3CCN(Cc4cccc(C#N)c4)CC3)cc2)c1OCc1ccc(F)cc1 [Example 29, N-[4-[4-(3-Cyano-benzyl)-piperazin-1-yl]-phenyl]-2-(4-fluoro-benzyloxy)-3-methoxy-benzamide]"

# The remaining lines, values behind:
row,SMILES,melting point [°C]
1,O=C(Nc1ccc(N2CCN(Cc3ccncc3)CC2)cc1)c1ccccc1-c1ccc(C(F)(F)F)cc1,194 to 196
2,"COc1cccc(CN2CCN(c3ccc(NC(=O)c4ccccc4-c4ccc(C(F)(F)F)cc4)cc3)CC2)c1 (hydrate or solvate) [Example 51, 4′-Trifluoromethyl-biphenyl-2-carboxylic acid [4-[4-(3-methoxy-benzyl)-piperazin-1-yl]-phenyl]-amide]",168 to 170
3,"O=C(Nc1ccc(N2CCN(Cc3ccccn3)CC2)cc1)c1ccccc1-c1ccc(C(F)(F)F)cc1 (hydrate or solvate) [Example 57, 4′-Trifluoromethyl-biphenyl-2-carboxylic acid [4-(4-pyridin-2-ylmethyl-piperazin-1-yl)-phenyl]-amide]",168 to 170
4,"O=C(Nc1ccc(N2CCN(Cc3nccs3)CC2)cc1)c1ccccc1-c1ccc(C(F)(F)F)cc1 (hydrate or solvate) [Example 59, 4′-Trifluoromethyl-biphenyl-2-carboxylic acid [4-(4-thiazol-2-ylmethyl-piperazin-1-yl)-phenyl]-amide]",187 to 189
5,"CC(C)c1ccc(-c2cc(Cl)ccc2C(=O)Nc2ccc(N3CCN(Cc4cccc(C#N)c4)CC3)cc2)cc1 [Example 7, 5-Chloro-4′-isopropyl-biphenyl-2-carboxylic acid [4-[4-(3-cyano-benzyl)-piperazin-1-yl]-phenyl]-amide]",188 to 190
6,"COc1cccc(C(=O)Nc2ccc(N3CCN(Cc4cccc(C#N)c4)CC3)cc2)c1-c1ccc(C(F)(F)F)cc1 [Example 8, 6-Methoxy-4′-trifluoromethyl-biphenyl-2-carboxylic acid [4-[4-(3-cyano-benzyl)-piperazin-1-yl]-phenyl]-amide]",215 to 217
7,"Cc1ccc(C(=O)Nc2ccc(N3CCN(Cc4cccc(C#N)c4)CC3)cc2)c(-c2ccc(C(F)(F)F)cc2)c1 [Example 9, 5-Methyl-4′-trifluoromethyl-biphenyl-2-carboxylic acid [4-[4-(3-cyano-benzyl)-piperazin-1-yl]-phenyl]-amide]",166 to 168
8,"N#Cc1cccc(CN2CCN(c3ccc(NC(=O)c4ccc(Cl)cc4-c4ccc(C(F)(F)F)cc4)cc3)CC2)c1 [Example 10, 5-Chloro-4′-trifluoromethyl-biphenyl-2-carboxylic acid [4-[4-(3-cyano-benzyl)-piperazin-1-yl]-phenyl]-amide]",164 to 165
9,"COc1ccc(C(=O)Nc2ccc(N3CCN(Cc4cccc(C#N)c4)CC3)cc2)c(-c2ccc(C(F)(F)F)cc2)c1 [Example 17, 5-Methoxy-4′-trifluoromethyl-biphenyl-2-carboxylic acid [4-[4-(3-cyano-benzyl)-piperazin-1-yl]-phenyl]-amide]",160 to 164
10,"Cc1ccc(-c2ccc(C(F)(F)F)cc2)c(C(=O)Nc2ccc(N3CCN(Cc4cccc(C#N)c4)CC3)cc2)c1 [Example 18, 4-Methyl4′-trifluoromethyl-biphenyl-2-carboxylic acid [4-[4-(3-cyano-benzyl)-piperazin-1-yl]-phenyl]-amide]",120 to 124
11,"COc1ccc(-c2ccc(C(F)(F)F)cc2)c(C(=O)Nc2ccc(N3CCN(Cc4cccc(C#N)c4)CC3)cc2)c1 [Example 19, 4-Methoxy-4′-trifluoromethyl-biphenyl-2-carboxylic acid [4-[4-(3-cyano-benzyl)-piperazin-1-yl]-phenyl]-amide]",151 to 155
12,"COc1cccc(C(=O)Nc2ccc(N3CCN(Cc4cccc(C#N)c4)CC3)cc2)c1OCCc1ccccc1 [Example 30, N-[4-[4-(3-Cyano-benzyl)-piperazin-1-yl]-phenyl]-3-methoxy-2-phenethyloxy-benzamide]",140 to 142
13,"COc1cccc(C(=O)Nc2ccc(N3CCN(Cc4cccc(C#N)c4)CC3)cc2)c1OCCC1CCCCC1 [Example 31, N-[4-[4-(3-Cyano-benzyl)-piperazin-1-yl]-phenyl]-2-(2-cyclohexyl-ethoxy)-3-methoxy-benzamide]",102 to 104
